From patent US12234221B2, “Pyridine carboxamide compounds for inhibiting NAV1.8” (Lieber Institute, Inc., priority 2018, dated 2025)
Each block holds one molecule with its values, some of them ahead of it.

Assays:
[1] = biological target: T1, human Nav1.8 (hNav1.8) ion channel (Homo sapiens, UniProt Q9Y5Y9); test: Nav1.8 channel inhibition, estimated IC50 (one or more of: fluorescence inhibition assay, PatchXpress, IonFlux HT automated patch clamp); format: cell-based; conditions: HEK293 cells stably expressing hNav1.8; method used per compound not stated; read-out: Activity range (estimated IC50)
T1 construct: expressed in transfected cells; host or cells: HEK293
T1 sequence (Q9Y5Y9 whole entry): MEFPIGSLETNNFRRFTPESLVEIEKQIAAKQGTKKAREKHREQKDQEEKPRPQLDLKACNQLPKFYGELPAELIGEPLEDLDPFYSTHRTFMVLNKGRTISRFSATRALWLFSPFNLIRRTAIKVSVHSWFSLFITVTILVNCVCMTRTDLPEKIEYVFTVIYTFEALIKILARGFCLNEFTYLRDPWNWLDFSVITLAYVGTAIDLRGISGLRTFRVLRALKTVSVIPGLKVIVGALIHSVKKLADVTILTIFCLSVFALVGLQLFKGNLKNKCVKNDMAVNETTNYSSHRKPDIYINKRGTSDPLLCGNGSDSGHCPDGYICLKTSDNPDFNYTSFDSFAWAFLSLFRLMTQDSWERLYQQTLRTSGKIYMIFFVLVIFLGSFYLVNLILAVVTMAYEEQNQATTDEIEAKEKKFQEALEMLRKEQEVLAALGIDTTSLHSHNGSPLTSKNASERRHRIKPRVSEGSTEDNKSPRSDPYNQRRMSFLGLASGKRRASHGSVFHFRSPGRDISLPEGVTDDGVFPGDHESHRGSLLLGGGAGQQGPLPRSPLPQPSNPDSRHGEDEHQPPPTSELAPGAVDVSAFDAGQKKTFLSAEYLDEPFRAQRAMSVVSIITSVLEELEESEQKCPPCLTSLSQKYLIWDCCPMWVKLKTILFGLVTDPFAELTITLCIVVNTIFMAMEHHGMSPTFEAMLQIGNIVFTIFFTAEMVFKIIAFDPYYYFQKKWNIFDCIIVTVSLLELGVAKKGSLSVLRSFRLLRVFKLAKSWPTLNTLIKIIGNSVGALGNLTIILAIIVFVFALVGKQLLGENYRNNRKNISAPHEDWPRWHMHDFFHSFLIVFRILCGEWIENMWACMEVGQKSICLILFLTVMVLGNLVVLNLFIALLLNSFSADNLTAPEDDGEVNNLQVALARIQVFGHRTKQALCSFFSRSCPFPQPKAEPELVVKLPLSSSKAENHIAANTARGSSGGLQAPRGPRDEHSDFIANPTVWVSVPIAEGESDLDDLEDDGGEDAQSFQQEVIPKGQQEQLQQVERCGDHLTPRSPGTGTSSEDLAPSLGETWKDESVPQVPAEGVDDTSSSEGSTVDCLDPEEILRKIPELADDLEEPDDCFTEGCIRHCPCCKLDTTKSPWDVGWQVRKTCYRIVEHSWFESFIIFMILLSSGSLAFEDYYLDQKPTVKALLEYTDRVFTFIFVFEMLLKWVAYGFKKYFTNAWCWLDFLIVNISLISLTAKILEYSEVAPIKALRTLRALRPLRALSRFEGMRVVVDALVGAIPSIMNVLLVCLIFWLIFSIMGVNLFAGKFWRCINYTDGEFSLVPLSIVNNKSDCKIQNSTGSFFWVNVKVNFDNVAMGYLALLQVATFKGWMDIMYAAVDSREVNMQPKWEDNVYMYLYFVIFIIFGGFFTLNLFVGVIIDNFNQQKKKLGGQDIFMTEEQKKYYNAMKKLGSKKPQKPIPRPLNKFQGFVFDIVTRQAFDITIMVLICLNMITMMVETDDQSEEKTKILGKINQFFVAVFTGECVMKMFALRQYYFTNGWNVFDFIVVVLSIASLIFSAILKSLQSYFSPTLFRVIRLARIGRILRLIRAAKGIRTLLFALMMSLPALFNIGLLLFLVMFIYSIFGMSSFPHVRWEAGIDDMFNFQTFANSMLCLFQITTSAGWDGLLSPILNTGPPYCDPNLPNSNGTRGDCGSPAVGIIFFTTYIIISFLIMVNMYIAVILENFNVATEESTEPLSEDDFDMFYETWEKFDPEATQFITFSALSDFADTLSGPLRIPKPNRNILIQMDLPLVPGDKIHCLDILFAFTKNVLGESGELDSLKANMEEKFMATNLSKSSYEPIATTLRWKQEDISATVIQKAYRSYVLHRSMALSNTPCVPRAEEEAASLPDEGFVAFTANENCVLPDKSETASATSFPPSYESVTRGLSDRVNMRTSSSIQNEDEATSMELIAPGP
Summary of the method: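 HEK293 cells stably expressing hNav1.8 with β1/β2 subunits; IC50 from the fluorescence assay and/or automated whole-cell patch clamp (PatchXpress, IonFlux HT). Fluorescence: ANG-2 Na dye, 5 min compound preincubation (0.02–5 μM, 1% DMSO) with 30 μM ouabain, stimulation by 10 μM deltamethrin, peak signal fit logistically. PatchXpress: holding potential reset to Vhalf, inhibition normalized to control/washout currents.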

Nav 1.8 [2] = conditions: PTHS models (ex vivo cell model, rodent models); cited from earlier work
Nav 1.8 [3] = biological target: T2, Nav 1.8 (Mus musculus, UniProt Q6QIY3); conditions: mouse model of MS; cited from earlier work
T2 construct: host or cells: mouse, in vivo
T2 sequence (Q6QIY3 whole entry): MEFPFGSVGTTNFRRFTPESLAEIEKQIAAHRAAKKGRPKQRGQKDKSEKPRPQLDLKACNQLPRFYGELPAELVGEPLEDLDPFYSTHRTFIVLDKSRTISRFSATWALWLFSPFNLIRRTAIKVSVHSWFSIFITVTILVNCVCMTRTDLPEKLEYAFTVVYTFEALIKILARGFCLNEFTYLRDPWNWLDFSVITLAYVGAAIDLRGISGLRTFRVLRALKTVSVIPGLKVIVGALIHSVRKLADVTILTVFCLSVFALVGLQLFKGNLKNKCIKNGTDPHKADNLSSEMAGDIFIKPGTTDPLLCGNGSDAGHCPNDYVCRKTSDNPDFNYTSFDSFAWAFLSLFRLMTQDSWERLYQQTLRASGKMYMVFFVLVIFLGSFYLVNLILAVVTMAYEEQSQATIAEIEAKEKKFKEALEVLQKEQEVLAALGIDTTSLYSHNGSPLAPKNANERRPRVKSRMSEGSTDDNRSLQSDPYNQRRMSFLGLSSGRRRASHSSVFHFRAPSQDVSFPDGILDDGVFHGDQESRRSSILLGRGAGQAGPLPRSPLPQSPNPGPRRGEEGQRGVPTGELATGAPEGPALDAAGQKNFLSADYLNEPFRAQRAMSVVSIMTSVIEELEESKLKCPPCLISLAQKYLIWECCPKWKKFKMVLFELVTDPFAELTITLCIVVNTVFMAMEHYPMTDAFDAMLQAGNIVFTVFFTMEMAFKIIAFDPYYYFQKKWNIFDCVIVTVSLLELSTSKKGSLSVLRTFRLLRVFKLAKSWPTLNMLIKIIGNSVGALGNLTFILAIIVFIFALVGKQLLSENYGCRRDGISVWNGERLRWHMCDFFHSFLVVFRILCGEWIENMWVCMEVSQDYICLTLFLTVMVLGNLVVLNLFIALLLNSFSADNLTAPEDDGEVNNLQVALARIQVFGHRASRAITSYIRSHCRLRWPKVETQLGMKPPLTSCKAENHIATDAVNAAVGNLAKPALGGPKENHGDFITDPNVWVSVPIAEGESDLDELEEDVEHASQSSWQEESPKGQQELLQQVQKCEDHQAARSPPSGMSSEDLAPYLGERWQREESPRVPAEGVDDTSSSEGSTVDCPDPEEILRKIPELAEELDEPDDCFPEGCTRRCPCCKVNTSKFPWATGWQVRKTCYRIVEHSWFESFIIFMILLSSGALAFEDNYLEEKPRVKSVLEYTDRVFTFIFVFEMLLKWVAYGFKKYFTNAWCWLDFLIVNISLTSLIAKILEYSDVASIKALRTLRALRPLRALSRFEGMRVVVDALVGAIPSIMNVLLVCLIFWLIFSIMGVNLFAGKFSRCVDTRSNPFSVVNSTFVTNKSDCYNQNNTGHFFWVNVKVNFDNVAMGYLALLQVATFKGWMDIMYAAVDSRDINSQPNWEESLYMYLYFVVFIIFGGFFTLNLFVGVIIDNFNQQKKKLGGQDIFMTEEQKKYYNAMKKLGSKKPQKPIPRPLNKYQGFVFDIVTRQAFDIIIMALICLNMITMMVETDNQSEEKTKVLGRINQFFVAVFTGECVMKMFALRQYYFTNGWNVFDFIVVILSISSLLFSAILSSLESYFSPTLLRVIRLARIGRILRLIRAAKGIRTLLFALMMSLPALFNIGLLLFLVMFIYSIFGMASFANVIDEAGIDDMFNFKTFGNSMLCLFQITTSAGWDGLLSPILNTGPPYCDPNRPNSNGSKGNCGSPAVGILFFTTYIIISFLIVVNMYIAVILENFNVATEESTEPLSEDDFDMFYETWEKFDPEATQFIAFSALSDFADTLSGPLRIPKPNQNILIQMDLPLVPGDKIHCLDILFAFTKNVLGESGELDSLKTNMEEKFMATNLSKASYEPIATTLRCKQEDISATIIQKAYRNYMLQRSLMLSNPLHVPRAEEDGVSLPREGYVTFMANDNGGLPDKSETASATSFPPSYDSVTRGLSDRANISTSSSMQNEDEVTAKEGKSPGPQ

IC50 [1]: < 500 nM
Compound: O=C(Nc1cccc(CO)c1)c1cc(C(F)(F)F)cnc1Oc1ccc(OC(F)(F)F)cc1Cl [Example 160, 2-[2-chloro-4-(trifluoromethoxy)phenoxy]-N-[3-(hydroxymethyl)phenyl]-5-(trifluoromethyl)pyridine-3-carboxamide]

IC50 [1]: < 500 nM
Compound: O=C(Nc1ccnnc1)c1cc(C(F)(F)F)cnc1Oc1ccc(OC(F)(F)F)cc1Cl [Example 161, 2-[2-chloro-4-(trifluoromethoxy)phenoxy]-N-pyridazin-4-yl-5-(trifluoromethyl)pyridine-3-carboxamide]

IC50 [1]: 500 to 1000 nM
Compound: Cc1ccc(S(C)(=O)=O)cc1NC(=O)c1cc(C(F)(F)F)cnc1Oc1ccc(OC(F)(F)F)cc1Cl [Example 168, 2-[2-chloro-4-(trifluoromethoxy)phenoxy]-N-(2-methyl-5-methylsulfonyl-phenyl)-5-(trifluoromethyl)pyridine-3-carboxamide]

IC50 [1]: > 1000 nM
Compound: Cn1ncnc1NC(=O)c1cc(C(F)(F)F)cnc1Oc1ccc(OC(F)(F)F)cc1Cl [Example 169, 2-[2-chloro-4-(trifluoromethoxy)phenoxy]-N-(2-methyl-1,2,4-triazol-3-yl)-5-(trifluoromethyl)pyridine-3-carboxamide]

IC50 [1]: < 500 nM
Compound: CN=S(C)(=O)c1cccc(NC(=O)c2cc(C(F)(F)F)cnc2Oc2ccc(OC)cc2OC)c1 (stereo not shown) [Example 171, 2-(2,4-dimethoxyphenoxy)-N-[3-(N,S-dimethylsulfonimidoyl)phenyl]-5-(trifluoromethyl)pyridine-3-carboxamide]

IC50 [1]: < 500 nM
Compound: CN=S(C)(=O)c1cccc(NC(=O)c2cc(C(F)(F)F)cnc2Oc2ccc(F)cc2F)c1 (stereo not shown) [Example 175, 2-(2,4-difluorophenoxy)-N-[3-(N,S-dimethylsulfonimidoyl)phenyl]-5(trifluoromethyl)pyridine-3-carboxamide]

IC50 [1]: > 1000 nM
Compound: O=C(Nc1ccnnc1)c1cc(C(F)(F)F)cnc1Oc1ccc(F)cc1F [Example 176, 2-(2,4-difluorophenoxy)-N-pyridazin-4-yl-5-(trifluoromethyl)pyridine-3-carboxamide]

IC50 [1]: < 500 nM
Compound: COc1cc(F)ccc1Oc1nc(OC)c(F)cc1C(=O)Nc1cccc(S(C)(=O)=O)c1 [Example 178, 5-fluoro-2-(4-fluoro-2-methoxy-phenoxy)-6-methoxy-N-(3-methylsulfonylphenyl)pyridine-3-carboxamide]

IC50 [1]: < 500 nM
Compound: CS(=O)(=O)c1cccc(NC(=O)c2cc(Cl)cnc2Oc2ccc(OC(F)(F)F)cc2)c1 [Example 181, 5-chloro-N-(3-methylsulfonylphenyl)-2-[4-(trifluoromethoxy)phenoxy]pyridine-3-carboxamide]

Continued, molecule first:

Compound: CS(=O)(=O)c1ccc(F)c(NC(=O)c2cc(C(F)(F)F)cnc2Oc2ccc(OC(F)(F)F)cc2Cl)c1 [Example 162, 2-[2-chloro-4-(trifluoromethoxy)phenoxy]-N-(2-fluoro-5-methylsulfonyl-phenyl)-5-(trifluoromethyl)pyridine-3-carboxamide]
IC50 [1]: < 500 nM

Compound: O=C(Nc1cccc(F)c1)c1cc(C(F)(F)F)cnc1Oc1ccc(OC(F)(F)F)cc1Cl [Example 163, 2-[2-chloro-4-(trifluoromethoxy)phenoxy]-N-(3-fluorophenyl)-5-(trifluoromethyl)pyridine-3-carboxamide]
IC50 [1]: > 1000 nM

Compound: Cc1cc(NC(=O)c2cc(C(F)(F)F)cnc2Oc2ccc(OC(F)(F)F)cc2Cl)ccn1 [Example 164, 2-[2-chloro-4-(trifluoromethoxy)phenoxy]-N-(2-methyl-4-pyridyl)-5-(trifluoromethyl)pyridine-3-carboxamide]
IC50 [1]: < 500 nM

Compound: O=C(Nc1ccnc(F)c1)c1cc(C(F)(F)F)cnc1Oc1ccc(OC(F)(F)F)cc1Cl [Example 165, 2-[2-chloro-4-(trifluoromethoxy)phenoxy]-N-(2-fluoro-4-pyridyl)-5-(trifluoromethyl)pyridine-3-carboxamide]
IC50 [1]: < 500 nM

Compound: O=C(Nc1cnns1)c1cc(C(F)(F)F)cnc1Oc1ccc(OC(F)(F)F)cc1Cl [Example 166, 2-[2-chloro-4-(trifluoromethoxy)phenoxy]-N-(thiadiazol-5-yl)-5-(trifluoromethyl)pyridine-3-carboxamide]
IC50 [1]: 500 to 1000 nM

Compound: Cn1nccc1NC(=O)c1cc(C(F)(F)F)cnc1Oc1ccc(OC(F)(F)F)cc1Cl [Example 167, 2-[2-chloro-4-(trifluoromethoxy)phenoxy]-N-(2-methylpyrazol-3-yl)-5-(trifluoromethyl)pyridine-3-carboxamide]
IC50 [1]: 500 to 1000 nM

Compound: Cn1cnc(NC(=O)c2cc(C(F)(F)F)cnc2Oc2ccc(OC(F)(F)F)cc2Cl)n1 [Example 170, 2-[2-chloro-4-(trifluoromethoxy)phenoxy]-N-(1-methyl-1,2,4-triazol-3-yl)-5-(trifluoromethyl)pyridine-3-carboxamide]
IC50 [1]: > 1000 nM

Compound: COc1ccc(Oc2ncc(C(F)(F)F)cc2C(=O)Nc2cccc(S(C)(=N)=O)c2)c(OC)c1 (stereo not shown) [Example 172, 2-(2,4-dimethoxyphenoxy)-N-[3(methylsulfonimidoyl)phenyl]-5-(trifluoromethyl)pyridine-3-carboxamide]
IC50 [1]: < 500 nM

Compound: COc1ccc(Oc2ncc(C(F)(F)F)cc2C(=O)Nc2ccnnc2)c(OC)c1 [Example 173, 2-(2,4-dimethoxyphenoxy)-N-pyridazin-4-yl-5-(trifluoromethyl)pyridine-3-carboxamide]
IC50 [1]: > 1000 nM

Compound: CS(=N)(=O)c1cccc(NC(=O)c2cc(C(F)(F)F)cnc2Oc2ccc(F)cc2F)c1 (stereo not shown) [Example 174, 2-(2,4-difluorophenoxy)-N-[3-(methylsulfonimidoyl)phenyl]-5-(trifluoromethyl)pyridine-3-carboxamide]
IC50 [1]: < 500 nM

Compound: COc1cc(F)ccc1Oc1nc(C)c(C#N)cc1C(=O)Nc1cccc(S(C)(=O)=O)c1 [Example 177, 5-cyano-2-(4-fluoro-2-methoxy-phenoxy)-6-methyl-N-(3-methylsulfonylphenyl)pyridine-3-carboxamide]
IC50 [1]: 500 to 1000 nM

Compound: COc1cc(F)ccc1Oc1ncc(OC(F)F)cc1C(=O)Nc1cccc(S(C)(=O)=O)c1 [Example 179, 5-(difluoromethoxy)-2-(4-fluoro-2-methoxy-phenoxy)-N-(3-methylsulfonylphenyl)pyridine-3-carboxamide]
IC50 [1]: < 500 nM

Compound: CS(=O)(=O)c1cccc(NC(=O)c2cc([N+](=O)[O-])cnc2Oc2ccc(OC(F)(F)F)cc2)c1 [Example 180, N-(3-methylsulfonylphenyl)-5-nitro-2-[4-(trifluoromethoxy)phenoxy]pyridine-3-carboxamide]
IC50 [1]: < 500 nM

Compound: COc1cc(NC(=O)c2ccc(-c3ccc(Cl)cc3)o2)cc(OC)c1 [Example A-803467, 5-4(-chlorophenyl)-N-(3,5-dimethoxyphenyl)furan-2-carboxamide]
effect on excitability phenotypes (Nav 1.8 [2]): can rapidly reverse some of the excitability phenotypes

Compound: CNC(=O)c1ccc(-c2cc(Cl)cc(Cl)c2Cl)c(N)n1 [PF 01247324, N-methyl-6-amino-5-(2,3,5-trichlorophenyl)pyridine-2-carboxamide]
effect on cerebellar deficits (Nav 1.8 [3]): reverses cerebellar deficits

Compound: COc1ccc(Cl)c(-c2ccc(NC(=O)c3ccnn3C)nc2N)c1 [PF 4531083, N-[6-amino-5-(2-chloro-5-methoxyphenyl)pyridin-2-yl]-1-methyl-1H-pyrazole-5-carboxamide]
effect on excitability phenotypes (Nav 1.8 [2]): can rapidly reverse some of the excitability phenotypes
